These results are taken from patent US20220396794A1, “APTAMERS AGAINST TRANSFERRIN RECEPTOR (TfR)” (APTERNA LIMITED, priority 2019, published 2022).

Data set [1] has as its system PANC-Luc tumors. Kind of data set: Liver-metastatic pancreatic cancer mouse model, combinational treatment with gemcitabine. In kind it is in vivo, NOD/SCID mice. The settings on record: gemcitabine alone 50 mg/kg 2 times/week I.V., compared to vehicle-treated control. The protocol:
Intrahepatic pancreatic cancer liver-metastatic mouse model. To create an animal model harboring traceable tumors, a firefly luciferase fragment was inserted into the pLKO.1-AS3 backbone encoding the neo gene (National RNAi Core, Academia Sinica, Taiwan). One day before transduction, 293T cells were plated onto a 6-well plate. On the day of transduction, the medium was replaced with DMEM containing serial dilutions of the transfer plasmids and incubated for 5 h, then the medium was replaced. After two days, the culture medium containing recombinant lentiviral particles was obtained. PANC-1 cells were incubated with recombinant lentiviral particles for 24 h. […] Luciferase expression was assessed using the Luciferase Assay System. […] For the combinational treatment with gemcitabine, tumors were allowed to grow for 2 weeks after inoculation until they could be detected using an IVIS system, then mice were randomly divided into five groups of 10 animals/group. […] Tumor growth was monitored by evaluating bioluminescence using an IVIS 200 in vivo imaging platform (Caliper Life Sciences, Alameda, Calif.) and measuring the difference from before the first injection and one day after the last injection. […] The mice were imaged using the IVIS 200 and bioluminescent signals were analyzed using Living Image Software (Caliper Life Sciences, Alameda, Calif.). […]

For data set [2], the target named is T1, hTfR1 (extracellular domain of hTfR, His6-tagged) (Homo sapiens, UniProt P02786).
T1 construct: (NP_003225.2) (Cys 89-Phe 760); His6 (N); purchased Sino Biological Inc 11020-H07H; host or cells: HEK293
The data set is described as follows: Surface plasmon resonance-based biosensor assay (Biacore T100), aptamer-hTfR binding affinity and kinetics. The settings on record: for ka (1/Ms), measured association rate / kd (1/s), measured disassociation rate / Kd: Biacore T100, biotinylated aptamer on streptavidin chip, hTfR1 protein injected, 1:1 binding with mass transfer; for Kd: read-out: K^D (M), equilibrium dissociation constant; for binding affinity and kinetics for hTfR1 (Biacore sensorgram), in words: compared with parent TR14. From the text:
Recombinant target protein. hTfR was purchased from Sino Biological Inc (11020-H07H, Beijing, P.R. China). The extracellular domain of hTfR (NP_003225.2) (Cys 89-Phe 760) was expressed with a His6-tag at the N-terminus in human cells (HEK293).
Surface plasmon resonance-based biosensor assay. The Biacore T100 (GE Healthcare, Uppsala, Sweden) was used to monitor label-free interactions of truncated TR14-hTfR1 in real time. The biotinylated aptamer was coupled to a streptavidin-coated Biacore chip (SensorChip SA, BR-1003-98, General Electric Company) by an injection in binding buffer at a concentration of 25 μg/mL (30 mM Tris-HCl, pH 7.5; 150 mM NaCl; 5 mM MgCl2) at 10 uL/min. The RNA was refolded by heating to 65° C., followed by cooling to 37° C., before immobilization. To measure binding kinetics, five concentrations of purified hTfR1 protein were injected at a flow rate of 10 uL/min. After binding, the surface was regenerated by injecting 50 mM NaOH at a flow rate of 15 μL/min for 20 s. Data from the control surface were subtracted. BIAevaluation software (GE Healthcare) was used for analysis. The binding data was fit to a 1:1 binding with a mass transfer model to calculate kinetics parameters as previously described (Hernandez et al, 2009; Soontornworajit et al, 2011)

For data set [3], the target named is T2, TfR1 (Homo sapiens, UniProt P02786).
T2 construct: The U87MG cells only express TfR1, not TfR2; endogenous in cells; host or cells: U87MG (U-87 MG, ATCC HTB-14)
The data set is described as follows: Cross-reactivity by live cell confocal imaging, U87MG cells (express TfR1, not TfR2). The note with it: Cy3-labelled aptamer, U87MG cells (TfR1 only). In kind it is cell-based. The protocol:
(§1) Cell line. HepG2 (Hepatocarcinoma, HB-8065) and PANC-1 (Pancreatic epithelioid carcinoma, CRL-1469), U-87 MG (Glioblastoma, HTB-14) were purchased from the American Type Culture Collection (ATCC, Manassas, Va.). The cells were cultured according to the suppliers' instructions. TB10 human glioma cell line was obtained from Vittorio de Franciscis lab in Italy. The cells were cultured according to the suppliers' instructions.
(§2) To determine the potential cross-reactivity of the parent TR14, S2 (43-nt) and ST1-3 (22-nt) truncates, we tested chemically synthesized parent TR14, TR14-[…] or TR14-ST1-3 aptamer labelled with Cy3 on live cells imaging by confocal microscopy. To test this, we choose two glioblastoma cell lines (U87MG and TB10) that are selectively expressed of TfR1 or TfR2. The U87MG cells only express TfR1, not TfR2. In contrast, TB10 expresses TfR2, not TfR1.

The target in data set [4] is T3, TfR2 (Homo sapiens, UniProt Q9UP52).
T3 construct: In contrast, TB10 expresses TfR2, not TfR1; endogenous in cells; host or cells: TB10 human glioma cells
T3 sequence (Q9UP52 1-801): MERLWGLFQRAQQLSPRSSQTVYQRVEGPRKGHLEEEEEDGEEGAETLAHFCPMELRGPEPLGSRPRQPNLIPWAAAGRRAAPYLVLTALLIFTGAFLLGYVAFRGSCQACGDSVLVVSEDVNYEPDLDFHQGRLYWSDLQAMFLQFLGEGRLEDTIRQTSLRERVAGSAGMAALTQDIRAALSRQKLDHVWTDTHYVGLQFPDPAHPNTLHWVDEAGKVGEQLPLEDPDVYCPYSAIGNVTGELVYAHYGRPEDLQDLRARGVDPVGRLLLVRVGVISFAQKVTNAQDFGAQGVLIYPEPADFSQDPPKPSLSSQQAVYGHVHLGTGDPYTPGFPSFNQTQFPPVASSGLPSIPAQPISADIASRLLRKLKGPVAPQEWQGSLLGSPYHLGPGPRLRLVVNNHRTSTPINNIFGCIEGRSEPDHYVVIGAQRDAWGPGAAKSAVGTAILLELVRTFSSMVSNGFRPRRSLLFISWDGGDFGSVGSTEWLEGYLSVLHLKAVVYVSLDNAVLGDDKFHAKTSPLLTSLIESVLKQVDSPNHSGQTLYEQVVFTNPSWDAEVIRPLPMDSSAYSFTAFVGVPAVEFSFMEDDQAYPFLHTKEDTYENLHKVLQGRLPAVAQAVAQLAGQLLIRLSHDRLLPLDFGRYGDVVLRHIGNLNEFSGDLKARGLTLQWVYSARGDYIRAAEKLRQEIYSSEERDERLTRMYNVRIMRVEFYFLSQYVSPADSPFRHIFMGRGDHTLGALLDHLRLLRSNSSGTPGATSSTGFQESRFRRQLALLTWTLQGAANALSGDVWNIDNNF
Kind of data set: Cross-reactivity by live cell confocal imaging, TB10 cells (express TfR2, not TfR1). In kind it is cell-based. The settings on record: Cy3-labelled aptamer, TB10 cells (TfR2 only). The protocol: as §1, §2

T1 sequence (P02786 89-760): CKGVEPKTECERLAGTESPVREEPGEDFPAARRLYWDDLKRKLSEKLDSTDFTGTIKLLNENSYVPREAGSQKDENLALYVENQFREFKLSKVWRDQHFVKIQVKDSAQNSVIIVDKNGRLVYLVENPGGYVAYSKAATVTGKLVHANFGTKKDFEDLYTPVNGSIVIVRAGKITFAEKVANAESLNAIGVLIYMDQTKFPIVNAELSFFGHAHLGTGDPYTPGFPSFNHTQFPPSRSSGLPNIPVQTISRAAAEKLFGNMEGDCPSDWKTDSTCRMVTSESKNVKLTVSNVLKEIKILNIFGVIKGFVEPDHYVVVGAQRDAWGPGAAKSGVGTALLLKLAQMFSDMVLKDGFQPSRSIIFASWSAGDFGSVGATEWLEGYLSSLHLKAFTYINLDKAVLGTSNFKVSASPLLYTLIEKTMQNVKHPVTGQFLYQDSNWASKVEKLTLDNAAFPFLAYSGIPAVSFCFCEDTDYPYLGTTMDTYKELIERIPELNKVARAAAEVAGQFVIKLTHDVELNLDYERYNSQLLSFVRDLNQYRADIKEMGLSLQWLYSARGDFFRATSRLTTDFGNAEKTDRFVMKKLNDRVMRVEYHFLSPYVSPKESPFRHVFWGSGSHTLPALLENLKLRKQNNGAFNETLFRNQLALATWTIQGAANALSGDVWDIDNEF
T2 sequence (P02786 whole entry): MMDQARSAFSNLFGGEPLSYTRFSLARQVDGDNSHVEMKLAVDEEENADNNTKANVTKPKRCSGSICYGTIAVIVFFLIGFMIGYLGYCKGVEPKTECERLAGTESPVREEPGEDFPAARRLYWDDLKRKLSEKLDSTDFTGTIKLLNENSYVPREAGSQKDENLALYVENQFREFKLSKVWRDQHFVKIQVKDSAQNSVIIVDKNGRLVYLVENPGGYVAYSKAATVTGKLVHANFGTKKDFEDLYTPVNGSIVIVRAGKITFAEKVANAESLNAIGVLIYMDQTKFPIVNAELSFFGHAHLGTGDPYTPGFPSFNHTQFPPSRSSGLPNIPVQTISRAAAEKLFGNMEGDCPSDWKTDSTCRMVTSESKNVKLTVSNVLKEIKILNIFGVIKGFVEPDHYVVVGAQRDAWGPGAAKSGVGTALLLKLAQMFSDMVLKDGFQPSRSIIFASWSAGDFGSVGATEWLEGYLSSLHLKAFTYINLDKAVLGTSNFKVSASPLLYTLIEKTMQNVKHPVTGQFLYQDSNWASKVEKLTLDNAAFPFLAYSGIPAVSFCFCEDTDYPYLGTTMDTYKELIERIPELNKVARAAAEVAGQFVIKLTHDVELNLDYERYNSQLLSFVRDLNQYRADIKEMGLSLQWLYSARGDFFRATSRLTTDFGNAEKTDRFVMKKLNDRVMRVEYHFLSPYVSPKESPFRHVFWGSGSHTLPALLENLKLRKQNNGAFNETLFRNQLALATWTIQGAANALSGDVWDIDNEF

`Nc1ccn([C@@H]2O[C@H](CO)[C@@H](O)C2(F)F)c(=O)n1` [gemcitabine, 2′, 2′-difluoro 2′deoxycytidine, reference compound]: the “reduction of tumor volume” value in data set [1] was roughly 70%.
As to “TR14 S1: TR14 truncate, 46-nt, with 5′-GGG; SEQ ID NO:2 (GGGGCUCAAUGCGUUCACGUUUAUUCACAUUUUUGAAUUGAGCAUG; listed as RNA, chemistry not given here)”, in data set [2], the “ka (1/Ms), measured association rate” value was determined as 13000 M⁻¹ s⁻¹; the “kd (1/s), measured disassociation rate” value is 1.89e-05 s⁻¹; the Kd came to 1.46e-09 M.
Regarding “TR14 S2: TR14 truncate, 43-nt, with 5′-GGG; SEQ ID NO:3 (GGGGCUCAAUGCGUUCACGUUUAUUCACAUUUUUGAAUUGAGC; listed as RNA, chemistry not given here)”, in data set [3], the “binding to TfR1” value is “selective binding to TfR1”. Moreover, in data set [2], the “ka (1/Ms), measured association rate” value stood at 8.34e+08 M⁻¹ s⁻¹; the “kd (1/s), measured disassociation rate” value is 0.000577 s⁻¹; the “binding affinity and kinetics for hTfR1 (Biacore sensorgram), in words” value (“binding affinity and kinetics for hTfR1” below) is listed as “improved kinetic constants”. In addition, the “binding to TfR2” value in data set [4] is “selective binding to TfR1”.
“TR14 ST1-1: TR14 truncate, 40-nt, without 5′-GGG, chemically synthesized; SEQ ID NO:4 (GCUCAAUGCGUUCACGUUUAUUCACAUUUUUGAAUUGAGC; chemically synthesized, modifications not given here, further chemistry not given here)”: the “binding affinity and kinetics for hTfR1” value in data set [2] is reported as “neither TR14 ST1-1 nor TR14 ST1-2 were measurable”.
“TR14 ST1-2: TR14 truncate, 32-nt, 5′-AAUGCGUUCACGUUUAUUCACAUUUUUGAAUU-3′; SEQ ID NO:5 (listed as RNA, chemistry not given here)”: in data set [2], the “binding affinity and kinetics for hTfR1” value was “neither TR14 ST1-1 nor TR14 ST1-2 were measurable”.
In the case of “TR14 ST1-3: TR14 truncate, 22-nt, 5′-UUUAUUCACAUUUUUGAAUUGA-3′; SEQ ID NO:6 (listed as RNA, chemistry not given here)”, the “binding to TfR1” value in data set [3] is “cross-activity on both TfR1 and TfR2”. Further, in data set [2], the “ka (1/Ms), measured association rate” value amounted to 6.3e+06 M⁻¹ s⁻¹; the “kd (1/s), measured disassociation rate” value was 0.000138 s⁻¹; the Kd turned out to be 2.2e-11 M. For the same molecule, the “binding to TfR2” value in data set [4] was “cross-activity on both TfR1 and TfR2”.
